These are literature values, as cited in US20040115749A1, “Cardiovascular disease and thrombotic risk diagnostic tests” (priority 2001, published 2004).

Each structure is given as a SMILES string.

The subject of this data set is ELISA kit for 13(S)-HODE (anti-13(S)-HODE specific antibody). As to conditions: commercial ELISA kit for 13(S)-HODE. (In general: In an ELISA, binding on a coated surface is turned into a signal by an enzyme label.)

With `CCCCC[C@@H](O)/C=C/C=C\CCCCCCCC(=O)O` [13(R)-HODE], the cross-reactivity is 10%.
